In patent US8247211B2, “Glycopeptide antibiotics” (American Cyanamid Company, priority 2001, dated 2012):
≈ marks a conversion by molar mass, not a printed value.

Columns and labels:
Assay in all cases: In vitro antibacterial evaluation: minimum inhibitory concentration (MIC), broth dilution method
Assay type in all cases: cell-based
Settings in all cases: 18 hours at 35° C.
Staphylococcus sp. = test system: Staphylococcus sp.
Outline: (§1)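 Inoculum: 5×10^5 CFU/mL. Range: 64-0.06 μg/mL. Medium: Muller-Hinton II […]; NCCLS M7-A2 broth dilution. Endpoint: lowest concentration inhibiting growth. Strains include methicillin-, penicillin- and/or vancomycin-resistant clinical isolates.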

Escherichia coli = test system: Escherichia coli
Outline: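 Broth dilution per NCCLS M7-A2 in Muller-Hinton II […], inoculum 5×10^5 CFU/mL, antibiotic tested over 64-0.06 μg/mL. MIC is taken as the lowest concentration that inhibits growth. Panel includes recent clinical isolates resistant to methicillin, penicillin and/or vancomycin.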

Enterococcus sp. = test system: Enterococcus sp.
Outline: as §1

Streptococcus sp. = test system: Streptococcus sp.
Outline: as §1

[1] = Enterococcus faecalis (GC 2242)
[2] = Enterococcus faecalis (GC 2691)
[3] = Enterococcus faecalis (GC 3059)
[4] = broth dilution, inoculum 5×10^5 CFU/mL
[5] = Streptococcus agalactiae (GC 4564)
[6] = Streptococcus pneumoniae (ATCC 6301)
[7] = Streptococcus pneumoniae (GC 1894)
[8] = Streptococcus pneumoniae (GC 4565)
[9] = Streptococcus pyogenes (GC 4563)

## COc1ccc(COCC2OC(OC3C(CO)OC(Oc4ccc(CC5NC(=O)C(C(C)c6ccccc6)NC(=O)CNC(=O)C(CO)NC(=O)C(C(O)C6CNC(=N)N6C6OC(CO)C(O)C(O)C6O)NC(=O)C(C(O)C6CNC(=N)N6)NC5=O)cc4)C(O)C3O)C(O)C(O)C2O)cc1F (stereo not drawn) [Example 237]
Staphylococcus sp.
  MIC Coagulase Negative Staphylococcus (GC 4547): 2 mg/L (≈ 1.4 µM)
  MIC Coagulase Negative Staphylococcus (GC 4548): 1 mg/L (≈ 0.698 µM)
  MIC Coagulase Negative Staphylococcus (GC 4549): 1 mg/L (≈ 0.698 µM)
  MIC Coagulase Negative Staphylococcus (GC 4551): 4 mg/L (≈ 2.79 µM)
  MIC Coagulase Negative Staphylococcus (GC 6257): 1 mg/L (≈ 0.698 µM)
  MIC Staphylococcus aureus (ATCC 29213): 4 mg/L (≈ 2.79 µM)
  MIC Staphylococcus aureus (GC 1131): 4 mg/L (≈ 2.79 µM)
  MIC Staphylococcus aureus (GC 3051): 2 mg/L (≈ 1.4 µM)
  MIC Staphylococcus aureus (GC 3053): 4 mg/L (≈ 2.79 µM)
  MIC Staphylococcus aureus (GC 4541): 2 mg/L (≈ 1.4 µM)
  MIC Staphylococcus aureus (GC 4542): 8 mg/L (≈ 5.58 µM)
  MIC Staphylococcus aureus (GC 4544): 4 mg/L (≈ 2.79 µM)
  MIC Staphylococcus aureus (GC 4545): 2 mg/L (≈ 1.4 µM)
  MIC Staphylococcus aureus-SMITH (GC 4543): 2 mg/L (≈ 1.4 µM)
  MIC Staphylococcus haemolyticus (GC 4546): 1 mg/L (≈ 0.698 µM)
Escherichia coli
  MIC Escherichia coli (ATCC 25922): 64 mg/L (≈ 44.6 µM)
  MIC Escherichia coli (GC 4559): 64 mg/L (≈ 44.6 µM)
  MIC Escherichia coli (GC 4560): 1 mg/L (≈ 0.698 µM)
Enterococcus sp.
  MIC Enterococcus avium (GC 4558): 16 mg/L (≈ 11.2 µM)
  MIC Enterococcus faecalis (ATCC 29212): 16 mg/L (≈ 11.2 µM)
  MIC Enterococcus faecalis (GC 4552): 16 mg/L (≈ 11.2 µM)
  MIC Enterococcus faecalis (GC 4553): 16 mg/L (≈ 11.2 µM)
  MIC Enterococcus faecalis (GC 4554): 32 mg/L (≈ 22.3 µM)
  MIC Enterococcus faecalis (GC 6189): 16 mg/L (≈ 11.2 µM)
  MIC Enterococcus faecium (GC 2243): 16 mg/L (≈ 11.2 µM)
  MIC Enterococcus faecium (GC 4556): 16 mg/L (≈ 11.2 µM)
  MIC Enterococcus faecium (GC 4557): 4 mg/L (≈ 2.79 µM)
Enterococcus sp.; [1]
  MIC Enterococcus faecalis (GC 2242): 16 mg/L (≈ 11.2 µM)
Enterococcus sp.; [2]
  MIC Enterococcus faecalis (GC 2691): 16 mg/L (≈ 11.2 µM)
Enterococcus sp.; [3]
  MIC Enterococcus faecalis (GC 3059): 32 mg/L (≈ 22.3 µM)
Enterococcus sp.; [4]
  MIC Enterococcus faecalis (GC 2242): 16 mg/L (≈ 11.2 µM)
  MIC Enterococcus faecalis (GC 2691): 16 mg/L (≈ 11.2 µM)
  MIC Enterococcus faecalis (GC 3059): 32 mg/L (≈ 22.3 µM)
Streptococcus sp.; [5]
  MIC Streptococcus agalactiae (GC 4564): 2 mg/L (≈ 1.4 µM)
Streptococcus sp.; [6]
  MIC Streptococcus pneumoniae (ATCC 6301): 0.5 mg/L (≈ 0.349 µM)
Streptococcus sp.; [7]
  MIC Streptococcus pneumoniae (GC 1894): 0.25 mg/L (≈ 0.174 µM)
Streptococcus sp.; [8]
  MIC Streptococcus pneumoniae (GC 4565): 0.5 mg/L (≈ 0.349 µM)
Streptococcus sp.; [9]
  MIC Streptococcus pyogenes (GC 4563): 1 mg/L (≈ 0.698 µM)
Streptococcus sp.; [4]
  MIC Streptococcus agalactiae (GC 4564): 2 mg/L (≈ 1.4 µM)
  MIC Streptococcus pneumoniae (ATCC 6301): 0.5 mg/L (≈ 0.349 µM)
  MIC Streptococcus pneumoniae (GC 1894): 0.25 mg/L (≈ 0.174 µM)
  MIC Streptococcus pneumoniae (GC 4565): 0.5 mg/L (≈ 0.349 µM)
  MIC Streptococcus pyogenes (GC 4563): 1 mg/L (≈ 0.698 µM)

## CCOc1cc(COCC2OC(OC3C(CO)OC(Oc4ccc(CC5NC(=O)C(C(C)c6ccccc6)NC(=O)CNC(=O)C(CO)NC(=O)C(C(O)C6CNC(=N)N6C6OC(CO)C(O)C(O)C6O)NC(=O)C(C(O)C6CNC(=N)N6)NC5=O)cc4)C(O)C3O)C(O)C(O)C2O)ccc1OC (stereo not drawn) [Example 238]
Staphylococcus sp.
  MIC Coagulase Negative Staphylococcus (GC 4547): 2 mg/L (≈ 1.37 µM)
  MIC Coagulase Negative Staphylococcus (GC 4548): 2 mg/L (≈ 1.37 µM)
  MIC Coagulase Negative Staphylococcus (GC 4549): 2 mg/L (≈ 1.37 µM)
  MIC Coagulase Negative Staphylococcus (GC 4551): 4 mg/L (≈ 2.74 µM)
  MIC Coagulase Negative Staphylococcus (GC 6257): 1 mg/L (≈ 0.685 µM)
  MIC Staphylococcus aureus (ATCC 29213): 4 mg/L (≈ 2.74 µM)
  MIC Staphylococcus aureus (GC 1131): 4 mg/L (≈ 2.74 µM)
  MIC Staphylococcus aureus (GC 3051): 4 mg/L (≈ 2.74 µM)
  MIC Staphylococcus aureus (GC 3053): 8 mg/L (≈ 5.48 µM)
  MIC Staphylococcus aureus (GC 4541): 4 mg/L (≈ 2.74 µM)
  MIC Staphylococcus aureus (GC 4542): 4 mg/L (≈ 2.74 µM)
  MIC Staphylococcus aureus (GC 4544): 8 mg/L (≈ 5.48 µM)
  MIC Staphylococcus aureus (GC 4545): 2 mg/L (≈ 1.37 µM)
  MIC Staphylococcus aureus-SMITH (GC 4543): 4 mg/L (≈ 2.74 µM)
  MIC Staphylococcus haemolyticus (GC 4546): 2 mg/L (≈ 1.37 µM)
Escherichia coli
  MIC Escherichia coli (ATCC 25922): >64 mg/L
  MIC Escherichia coli (GC 4559): >64 mg/L
  MIC Escherichia coli (GC 4560): 2 mg/L (≈ 1.37 µM)
Enterococcus sp.
  MIC Enterococcus avium (GC 4558): 16 mg/L (≈ 11 µM)
  MIC Enterococcus faecalis (ATCC 29212): 16 mg/L (≈ 11 µM)
  MIC Enterococcus faecalis (GC 4552): 32 mg/L (≈ 21.9 µM)
  MIC Enterococcus faecalis (GC 4553): 32 mg/L (≈ 21.9 µM)
  MIC Enterococcus faecalis (GC 4554): 32 mg/L (≈ 21.9 µM)
  MIC Enterococcus faecalis (GC 6189): 16 mg/L (≈ 11 µM)
  MIC Enterococcus faecium (GC 2243): 16 mg/L (≈ 11 µM)
  MIC Enterococcus faecium (GC 4556): 32 mg/L (≈ 21.9 µM)
  MIC Enterococcus faecium (GC 4557): 4 mg/L (≈ 2.74 µM)
Enterococcus sp.; [1]
  MIC Enterococcus faecalis (GC 2242): 16 mg/L (≈ 11 µM)
Enterococcus sp.; [2]
  MIC Enterococcus faecalis (GC 2691): 16 mg/L (≈ 11 µM)
Enterococcus sp.; [3]
  MIC Enterococcus faecalis (GC 3059): 32 mg/L (≈ 21.9 µM)
Enterococcus sp.; [4]
  MIC Enterococcus faecalis (GC 2242): 16 mg/L (≈ 11 µM)
  MIC Enterococcus faecalis (GC 2691): 16 mg/L (≈ 11 µM)
  MIC Enterococcus faecalis (GC 3059): 32 mg/L (≈ 21.9 µM)
Streptococcus sp.; [5]
  MIC Streptococcus agalactiae (GC 4564): 2 mg/L (≈ 1.37 µM)
Streptococcus sp.; [6]
  MIC Streptococcus pneumoniae (ATCC 6301): 1 mg/L (≈ 0.685 µM)
Streptococcus sp.; [7]
  MIC Streptococcus pneumoniae (GC 1894): 0.5 mg/L (≈ 0.343 µM)
Streptococcus sp.; [8]
  MIC Streptococcus pneumoniae (GC 4565): 1 mg/L (≈ 0.685 µM)
Streptococcus sp.; [9]
  MIC Streptococcus pyogenes (GC 4563): 1 mg/L (≈ 0.685 µM)
Streptococcus sp.; [4]
  MIC Streptococcus agalactiae (GC 4564): 2 mg/L (≈ 1.37 µM)
  MIC Streptococcus pneumoniae (ATCC 6301): 1 mg/L (≈ 0.685 µM)
  MIC Streptococcus pneumoniae (GC 1894): 0.5 mg/L (≈ 0.343 µM)
  MIC Streptococcus pneumoniae (GC 4565): 1 mg/L (≈ 0.685 µM)
  MIC Streptococcus pyogenes (GC 4563): 1 mg/L (≈ 0.685 µM)

## COc1ccc(COCC2OC(OC3C(CO)OC(Oc4ccc(CC5NC(=O)C(C(C)c6ccccc6)NC(=O)CNC(=O)C(CO)NC(=O)C(C(O)C6CNC(=N)N6C6OC(CO)C(O)C(O)C6O)NC(=O)C(C(O)C6CNC(=N)N6)NC5=O)cc4)C(O)C3O)C(O)C(O)C2O)cc1OCc1ccccc1 (stereo not drawn) [Example 239]
Staphylococcus sp.
  MIC Coagulase Negative Staphylococcus (GC 4547): 2 mg/L (≈ 1.31 µM)
  MIC Coagulase Negative Staphylococcus (GC 4548): 1 mg/L (≈ 0.657 µM)
  MIC Coagulase Negative Staphylococcus (GC 4549): 1 mg/L (≈ 0.657 µM)
  MIC Coagulase Negative Staphylococcus (GC 4551): 2 mg/L (≈ 1.31 µM)
  MIC Coagulase Negative Staphylococcus (GC 6257): 1 mg/L (≈ 0.657 µM)
  MIC Staphylococcus aureus (ATCC 29213): 2 mg/L (≈ 1.31 µM)
  MIC Staphylococcus aureus (GC 1131): 2 mg/L (≈ 1.31 µM)
  MIC Staphylococcus aureus (GC 3051): 1 mg/L (≈ 0.657 µM)
  MIC Staphylococcus aureus (GC 3053): 2 mg/L (≈ 1.31 µM)
  MIC Staphylococcus aureus (GC 4541): 4 mg/L (≈ 2.63 µM)
  MIC Staphylococcus aureus (GC 4542): 2 mg/L (≈ 1.31 µM)
  MIC Staphylococcus aureus (GC 4544): 2 mg/L (≈ 1.31 µM)
  MIC Staphylococcus aureus (GC 4545): 2 mg/L (≈ 1.31 µM)
  MIC Staphylococcus aureus-SMITH (GC 4543): 2 mg/L (≈ 1.31 µM)
  MIC Staphylococcus haemolyticus (GC 4546): 1 mg/L (≈ 0.657 µM)
Escherichia coli
  MIC Escherichia coli (ATCC 25922): >64 mg/L
  MIC Escherichia coli (GC 4559): >64 mg/L
  MIC Escherichia coli (GC 4560): 1 mg/L (≈ 0.657 µM)
Enterococcus sp.
  MIC Enterococcus avium (GC 4558): 4 mg/L (≈ 2.63 µM)
  MIC Enterococcus faecalis (ATCC 29212): 4 mg/L (≈ 2.63 µM)
  MIC Enterococcus faecalis (GC 4552): 4 mg/L (≈ 2.63 µM)
  MIC Enterococcus faecalis (GC 4553): 4 mg/L (≈ 2.63 µM)
  MIC Enterococcus faecalis (GC 4554): 4 mg/L (≈ 2.63 µM)
  MIC Enterococcus faecalis (GC 6189): 4 mg/L (≈ 2.63 µM)
  MIC Enterococcus faecium (GC 2243): 4 mg/L (≈ 2.63 µM)
  MIC Enterococcus faecium (GC 4556): 4 mg/L (≈ 2.63 µM)
  MIC Enterococcus faecium (GC 4557): 2 mg/L (≈ 1.31 µM)
Enterococcus sp.; [1]
  MIC Enterococcus faecalis (GC 2242): 4 mg/L (≈ 2.63 µM)
Enterococcus sp.; [2]
  MIC Enterococcus faecalis (GC 2691): 4 mg/L (≈ 2.63 µM)
Enterococcus sp.; [3]
  MIC Enterococcus faecalis (GC 3059): 4 mg/L (≈ 2.63 µM)
Enterococcus sp.; [4]
  MIC Enterococcus faecalis (GC 2242): 4 mg/L (≈ 2.63 µM)
  MIC Enterococcus faecalis (GC 2691): 4 mg/L (≈ 2.63 µM)
  MIC Enterococcus faecalis (GC 3059): 4 mg/L (≈ 2.63 µM)
Streptococcus sp.; [5]
  MIC Streptococcus agalactiae (GC 4564): 0.25 mg/L (≈ 0.164 µM)
Streptococcus sp.; [6]
  MIC Streptococcus pneumoniae (ATCC 6301): <0.06 mg/L
Streptococcus sp.; [7]
  MIC Streptococcus pneumoniae (GC 1894): <0.06 mg/L
Streptococcus sp.; [8]
  MIC Streptococcus pneumoniae (GC 4565): <0.06 mg/L
Streptococcus sp.; [9]
  MIC Streptococcus pyogenes (GC 4563): 0.25 mg/L (≈ 0.164 µM)
Streptococcus sp.; [4]
  MIC Streptococcus agalactiae (GC 4564): 0.25 mg/L (≈ 0.164 µM)
  MIC Streptococcus pneumoniae (ATCC 6301): <0.06 mg/L
  MIC Streptococcus pneumoniae (GC 1894): <0.06 mg/L
  MIC Streptococcus pneumoniae (GC 4565): <0.06 mg/L
  MIC Streptococcus pyogenes (GC 4563): 0.25 mg/L (≈ 0.164 µM)
